# In patent publication US11180573B2, “Extracellular matrix-producing composition using MAST4 gene and preparation method therefor” (priority 2017, dated 2021):
# System: human primary chondrocytes
# Experiment: TGF-β1 treatment of human primary chondrocytes, expression by RT-PCR and Western blotting
# Assay type: cell-based
# Method: In detail, the human primary chondrocytes of Example 4-1 were treated with TGF-β1, and an expression level thereof was measured by RT-PCR as in Examples 1-2 and 1-3 and Western blotting.
# [1] = co-treatment with TGF-β1 (5 ng/ml), compared with single treatment with TGF-β1, FIG. 9B
# [2] = TGF-β1 5 ng/ml for 24 hours, 48 hours, or 72 hours, FIG. 9
molecule,measurement,setting,value
Cc1cccc(-c2[nH]c(CNc3ccccc3F)nc2-c2ccc3ncnn3c2)n1 [TEW-7197],Acan expression increased by TGF-β1,[1],suppressed
same,inhibitory effect on MAST4 expression (of TGF-β1),[1],decreased
TGF-β1: growth factor that reduces MAST4 expression in human chondrocytes,MAST4 expression,[2],suppressed
same,expression of extracellular matrix factors,[2],increased
